Test system: colorectal tumor of Apc^min/+ genetically engineered CRC mouse
Type: in vivo, Apc^min/+ mice
Conditions: i.v. about 3.7 MBq, PET/CT after 1 h (Figure S4)

In the case of OC[C@H]1OC(O)[C@H](F)[C@@H](O)[C@@H]1O (stereo partly shown) [^18F-FDG, ^18F-Fluorodeoxyglucose, reference compound], the “Tumor enrichment in PET/CT (in words)” value is reported as “did not show ideal tumor enrichment”.
